Our source for the IC50 values is patent US12544391B2, “CD73 inhibitors” (ORIC Pharmaceuticals, Inc., priority 2019, dated 2026).

Molecules are shown by their SMILES.

The assay deals with T1, CD73 (Homo sapiens, UniProt P21589).
T1 sequence (P21589 27-549): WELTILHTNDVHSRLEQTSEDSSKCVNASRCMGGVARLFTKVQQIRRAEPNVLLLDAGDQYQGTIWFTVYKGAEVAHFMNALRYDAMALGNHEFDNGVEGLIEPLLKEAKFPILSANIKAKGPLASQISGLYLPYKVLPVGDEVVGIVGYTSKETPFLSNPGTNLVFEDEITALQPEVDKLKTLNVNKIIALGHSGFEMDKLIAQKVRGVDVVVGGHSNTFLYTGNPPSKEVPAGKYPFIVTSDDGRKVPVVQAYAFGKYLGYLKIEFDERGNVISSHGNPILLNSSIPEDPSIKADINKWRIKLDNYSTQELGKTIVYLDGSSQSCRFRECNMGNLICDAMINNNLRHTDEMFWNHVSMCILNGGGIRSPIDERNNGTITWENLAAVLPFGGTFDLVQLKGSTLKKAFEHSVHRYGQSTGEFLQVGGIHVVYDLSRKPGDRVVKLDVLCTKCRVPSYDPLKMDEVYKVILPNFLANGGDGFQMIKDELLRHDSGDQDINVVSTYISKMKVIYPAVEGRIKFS
Nature of the assay: CD73 biochemical assay, Malachite Green detection of AMP hydrolysis. To be noted: CD73 320 pM, AMP 15 μM, Malachite Green readout. The method, then:
Assay Reaction Conditions
• Assay Volume: 70 μl • Reaction Volume: 50 μl • CD73: 0.3208 nM • AMP: 15 μM • Assay Buffer: 2 5 mM Tris-HCL, pH 7.4, 0.01% Brij-35, 0.01% BSA, 5 mM MgCl2 Assay Procedure:
A clear 384 well plate was used in this assay.
Made dose titration of testing compounds in assay buffer, 10 points ½ log titrations in duplicates starting at 100 μM. Total volume for each well was 25 μl, with CD73 then added to each well for a final concentration of 320 pM. The solution was then incubated at RT for 15 min. 25 μl of AMP was added to each well for a final concentration of 15 μM, and then incubated at rt for 10 min. 10 μl of Malachite Green Reagent A was then added and allowed to incubate at rt for 10 min. 10 μl of Malachite Green Reagent B was then added and allowed to incubate at rt for 45 min. The absorbance for each sample was read on an Envision plate reader using excitation filter: Cy5 […].
The ability of the compounds disclosed herein to inhibit CD73 activity was quantified and the respective IC50 values were determined. Table 2 provides the biochemical IC50 values of compounds disclosed herein.
For `COC[C@](Cc1nn[nH]n1)(OC[C@H]1O[C@@H](c2ccc3c(NC4CCCC4)nc(Cl)nn23)[C@H](O)[C@@H]1O)P(=O)(O)O` (single isomer, unassigned) [Example 3], the IC50 was ≤ 0.5 nM.
With `O=P(O)(O)[C@@](CO)(Cc1nn[nH]n1)OC[C@H]1O[C@@H](c2ccc3c(NC4CCCC4)nc(Cl)nn23)[C@H](O)[C@@H]1O` [Example 1, ((R)-2-(((2R,3S,4R,5S)-5-(2-Chloro-4-(cyclopentylamino)pyrrolo[2,1-f][1,2,4]triazin-7-yl)-3,4-dihydroxytetrahydrofuran-2-yl)methoxy)-1-hydroxy-3-(2H-tetrazol-5-yl)propan-2-yl)phosphonic acid], the IC50 is ≤ 0.5 nM.
The compound `O=P(O)(O)[C@](CO)(Cc1nn[nH]n1)OC[C@H]1O[C@@H](c2ccc3c(NC4CCCC4)nc(Cl)nn23)[C@H](O)[C@@H]1O` [Example 2, ((S)-2-(((2R,3S,4R,5S)-5-(2-Chloro-4-(cyclopentylamino)pyrrolo[2,1-f][1,2,4]triazin-7-yl)-3,4-dihydroxytetrahydrofuran-2-yl)methoxy)-1-hydroxy-3-(2H-tetrazol-5-yl)propan-2-yl)phosphonic acid] displayed an IC50 of 1 to 100 nM.
With `COC[C@@](Cc1nn[nH]n1)(OC[C@H]1O[C@@H](c2ccc3c(NC4CCCC4)nc(Cl)nn23)[C@H](O)[C@@H]1O)P(=O)(O)O` [Example 4, ((S)-2-(((2R,3S,4R,5S)-5-(2-Chloro-4-(cyclopentylamino)pyrrolo[2,1-f][1,2,4]triazin-7-yl)-3,4-dihydroxytetrahydrofuran-2-yl)methoxy)-1-methoxy-3-(2H-tetrazol-5-yl)propan-2-yl)phosphonic acid] the figure was 1 to 100 nM.
With `COC[C@](CO)(OC[C@H]1O[C@@H](c2ccc3c(NC4CCCC4)nc(Cl)nn23)[C@H](O)[C@@H]1O)P(=O)(O)O` [Example 6, ((R)-2-(((2R,3S,4R,5S)-5-(2-Chloro-4-(cyclopentylamino)pyrrolo[2,1-f][1,2,4]triazin-7-yl)-3,4-dihydroxytetrahydrofuran-2-yl)methoxy)-1-hydroxy-3-methoxypropan-2-yl)phosphonic acid] the figure was ≤ 0.5 nM; with `COC[C@@](CO)(OC[C@H]1O[C@@H](c2ccc3c(NC4CCCC4)nc(Cl)nn23)[C@H](O)[C@@H]1O)P(=O)(O)O` [Example 7, ((S)-2-(((2R,3S,4R,5S)-5-(2-chloro-4-(cyclopentylamino)pyrrolo[2,1-f][1,2,4]triazin-7-yl)-3,4-dihydroxytetrahydrofuran-2-yl)methoxy)-1-hydroxy-3-methoxypropan-2-yl)phosphonic acid], 1 to 100 nM.
With `COCC(OC[C@H]1O[C@@H](c2ccc3c(NC4CCCC4)nc(Cl)nn23)[C@H](O)[C@@H]1O)(C(=O)O)P(=O)(O)O` (stereo partly drawn) [Example 8, 2-(((2R,3S,4R,5S)-5-(2-Chloro-4-(cyclopentylamino)pyrrolo[2,1-f][1,2,4]triazin-7-yl)-3,4-dihydroxytetrahydrofuran-2-yl)methoxy)-3-methoxy-2-phosphonopropanoic acid] the figure was 0.5 to 1 nM; with `COC[C@@](COCc1nn[nH]n1)(OC[C@H]1O[C@@H](c2ccc3c(NC4CCCC4)nc(Cl)nn23)[C@H](O)[C@@H]1O)P(=O)(O)O` [Example 10, ((R)-1-((2H-tetrazol-5-yl)methoxy)-2-(((2R,3S,4R,5S)-5-(2-chloro-4-(cyclopentylamino)pyrrolo[2,1-f][1,2,4]triazin-7-yl)-3,4-dihydroxytetrahydrofuran-2-yl)methoxy)-3-methoxypropan-2-yl)phosphonic acid], 1 to 100 nM; with `O=P(O)(O)C(CO)(CO)OC[C@H]1O[C@@H](c2ccc3c(NC4CCCC4)nc(Cl)nn23)[C@H](O)[C@@H]1O` [Example 11, (2-(((2R,3S,4R,5S)-5-(2-chloro-4-(cyclopentylamino)pyrrolo[2,1-f][1,2,4]triazin-7-yl)-3,4-dihydroxytetrahydrofuran-2-yl)methoxy)-1,3-dihydroxypropan-2-yl)phosphonic acid], 0.5 to 1 nM.
In turn, `O=P(O)(O)C(CO)OC[C@H]1O[C@@H](c2ccc3c(NC4CCCC4)nc(Cl)nn23)[C@H](O)[C@@H]1O` (stereo partly drawn) [Example 13, (1-(((2R,3S,4R,5S)-5-(2-chloro-4-(cyclopentylamino)pyrrolo[2,1-f][1,2,4]triazin-7-yl)-3,4-dihydroxytetrahydrofuran-2-yl)methoxy)-2-hydroxyethyl)phosphonic acid] returned a half-maximal inhibitory concentration (IC50) of 1 to 100 nM.
Turning to `COCC(OC[C@H]1O[C@@H](c2ccc3c(NC4CCCC4)nc(Cl)nn23)[C@H](O)[C@@H]1O)P(=O)(O)O` (stereo partly drawn) [Example 14, (1-(((2R,3S,4R,5S)-5-(2-chloro-4-(cyclopentylamino)pyrrolo[2,1-f][1,2,4]triazin-7-yl)-3,4-dihydroxytetrahydrofuran-2-yl)methoxy)-2-methoxyethyl)phosphonic acid], the IC50 fell in the range of 0.5 to 1 nM.
With `O=P(O)(O)[C@](CO)(COCc1nn[nH]n1)OC[C@H]1O[C@@H](c2ccc3c(NC4CCCC4)nc(Cl)nn23)[C@H](O)[C@@H]1O` [Example 16, ((R)-1-((2H-tetrazol-5-yl)methoxy)-2-(((2R,3S,4R,5S)-5-(2-chloro-4-(cyclopentylamino)pyrrolo[2,1-f][1,2,4]triazin-7-yl)-3,4-dihydroxytetrahydrofuran-2-yl)methoxy)-3-hydroxypropan-2-yl)phosphonic acid] the figure was 0.5 to 1 nM; with `O=P(O)(O)C(CO)(CO)OC[C@H]1O[C@@H](c2cnn3c(NC4CCCC4)cc(Cl)nc23)[C@H](O)[C@@H]1O` [Example 17, (2-(((2R,3S,4R,5S)-5-(5-Chloro-7-(cyclopentylamino)pyrazolo[1,5-a]pyrimidin-3-yl)-3,4-dihydroxytetrahydrofuran-2-yl)methoxy)-1,3-dihydroxypropan-2-yl)phosphonic acid], 0.5 to 1 nM.
As for `O=P(O)(O)C(CO)(CO)OC[C@H]1O[C@H](c2cnn3c(NC4CCCC4)cc(Cl)nc23)[C@H](O)[C@@H]1O` [Example 18, (2-(((2R,3S,4R,5R)-5-(5-Chloro-7-(cyclopentylamino)pyrazolo[1,5-a]pyrimidin-3-yl)-3,4-dihydroxytetrahydrofuran-2-yl)methoxy)-1,3-dihydroxypropan-2-yl)phosphonic acid], the IC50 was in the range of 1 to 100 nM.
With `CC(CO)(OC[C@H]1O[C@@H](c2ccc3c(NC4CCCC4)nc(Cl)nn23)[C@H](O)[C@@H]1O)P(=O)(O)O` (stereo partly drawn) [Example 19, (2-(((2R,3S,4R,5S)-5-(2-chloro-4-(cyclopentylamino)pyrrolo[2,1-f][1,2,4]triazin-7-yl)-3,4-dihydroxytetrahydrofuran-2-yl)methoxy)-1-hydroxypropan-2-yl)phosphonic acid] the figure was 1 to 100 nM; with `O=P(O)(O)C(CO)(COCc1nn[nH]n1)OC[C@H]1O[C@@H](c2ccc3c(NC4CCCC4)nc(Cl)nn23)[C@H](O)[C@@H]1O` (stereo partly drawn) [Example 20, (1-((2H-tetrazol-5-yl)methoxy)-2-(((2R,3S,4R,5S)-5-(2-chloro-4-(cyclopentylamino)pyrrolo[2,1-f][1,2,4]triazin-7-yl)-3,4-dihydroxytetrahydrofuran-2-yl)methoxy)-3-hydroxypropan-2-yl)phosphonic acid], ≤ 0.5 nM.
With `O=P(O)(O)C(CO)(Cc1nn[nH]n1)OC[C@H]1O[C@@H](c2ccc3c(NC4CCCC4)nc(CO)nn23)[C@H](O)[C@@H]1O` (some centres unmarked) [Example 21] the figure was 0.5 to 1 nM; with `COCC(C)(OC[C@H]1O[C@@H](c2ccc3c(NC4CCCC4)nc(Cl)nn23)[C@H](O)[C@@H]1O)P(=O)(O)O` (stereo partly drawn) [Example 22, (2-(((2R,3S,4R,5S)-5-(2-chloro-4-(cyclopentylamino)pyrrolo[2,1-f][1,2,4]triazin-7-yl)-3,4-dihydroxytetrahydrofuran-2-yl)methoxy)-1-methoxypropan-2-yl)phosphonic acid], ≤ 0.5 nM.
With `O=C(O)COCC(CO)(OC[C@H]1O[C@@H](c2ccc3c(NC4CCCC4)nc(Cl)nn23)[C@H](O)[C@@H]1O)P(=O)(O)O` (stereo partly drawn) [Example 23, 2-(2-(((2R,3S,4R,5S)-5-(2-chloro-4-(cyclopentylamino)pyrrolo[2,1-f][1,2,4]triazin-7-yl)-3,4-dihydroxytetrahydrofuran-2-yl)methoxy)-3-hydroxy-2-phosphonopropoxy)acetic acid] the figure was 0.5 to 1 nM; with `CCOC(=O)COCC(CO)(OC[C@H]1O[C@@H](c2ccc3c(NC4CCCC4)nc(Cl)nn23)[C@H](O)[C@@H]1O)P(=O)(O)O` (stereo partly drawn) [Example 24, (2-(((2R,3S,4R,5S)-5-(2-chloro-4-(cyclopentylamino)pyrrolo[2,1-f][1,2,4]triazin-7-yl)-3,4-dihydroxytetrahydrofuran-2-yl)methoxy)-1-(2-ethoxy-2-oxoethoxy)-3-hydroxypropan-2-yl)phosphonic acid], 1 to 100 nM.
